Reference: PMC9409066, “Functional Characterization of the Venus Flytrap Domain of the Human TAS1R2 Sweet Taste Receptor” (International Journal of Molecular Sciences, 2022)
Positions count from the first letter of the chain named. Where two headings read alike, the source gives them in different places. Marks after values point to notes of the source that are not given here. Residues, ends and D or L forms follow the SMILES beside them.

How the values were obtained:
human panels = conditions: molar basis, cited from earlier work
hTAS1R2-VFT = target: T1, hTAS1R2-VFT (Homo sapiens, UniProt Q8TE23); assay: Intrinsic tryptophan fluorescence ligand binding, hTAS1R2-VFT
T1 construct: followed by hTAS1R2-VFT (Ala22-Ser493) and another His6-tag at the C-terminus; His6 (thrombin-cleavable) (N); made in house
T1 sequence (Q8TE23 22-493): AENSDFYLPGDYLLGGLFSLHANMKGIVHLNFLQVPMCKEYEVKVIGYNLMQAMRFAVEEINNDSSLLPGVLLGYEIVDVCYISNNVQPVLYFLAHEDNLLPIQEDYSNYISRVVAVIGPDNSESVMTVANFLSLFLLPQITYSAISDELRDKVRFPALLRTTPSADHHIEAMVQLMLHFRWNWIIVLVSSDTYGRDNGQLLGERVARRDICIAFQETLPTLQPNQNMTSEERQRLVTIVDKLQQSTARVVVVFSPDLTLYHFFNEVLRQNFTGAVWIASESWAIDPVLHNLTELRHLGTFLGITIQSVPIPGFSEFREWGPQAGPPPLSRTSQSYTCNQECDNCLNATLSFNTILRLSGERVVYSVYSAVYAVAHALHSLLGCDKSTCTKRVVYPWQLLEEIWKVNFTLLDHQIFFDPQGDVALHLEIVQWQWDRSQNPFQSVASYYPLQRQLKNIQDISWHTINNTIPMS
Excerpt: Therefore, we tested the binding affinity of hTAS1R2-VFT using an intrinsic tryptophan fluorescence assay. This approach allows one to measure protein–ligand interactions by measuring the fluorescence emitted by tryptophan residues upon the titration of sweet ligands. This technique is very sensitive to changes in the local environment of fluorescent amino acid residues within a protein and has been used to measure protein–ligand binding interactions with mouse, human and cat TAS1R-VFTs. For this purpose, we determined the concentration response relationships for the intrinsic tryptophan fluorescence of hTAS1R2-VFT upon the addition of various sweet compounds.
Figure 4 Binding properties of hTAS1R2-VFT assessed by intrinsic tryptophan fluorescence. Titration curves of hTAS1R2-VFT were generated with natural sugars (pink circles) or sweeteners (blue circles). Circles show experimental data, while the solid lines are the computed binding curves; excitation and emission wavelengths were 295 nm and 340 nm, respectively; hTAS1R2-VFT concentration, 0.5 µM. Data points correspond to the means ± SEMs of at least 12 independent replicates of at least three independently refolded protein samples, except for glucose, 6 independent replicates over three independently refolded protein samples.
All measurements were conducted at 20 °C using a Cary Eclipse spectrofluorimeter (Agilent Technologies, Santa Clara, CA, USA) equipped with a Peltier temperature control unit with a 5 nm bandwidth for emission and excitation. Ligand binding experiments with 0.5 µM hTAS1R2-VFTs were performed in buffer composed of 50 mM Tris-HCl pH 8, 150 mM NaCl, 0.5 mM DDM and 1 mM DTT. The intrinsic fluorescence of hTAS1R2-VFTs was measured at an excitation wavelength of 295 nm, and emission spectra were recorded from 320 to 380 nm. Fluorescence emission values were collected at 340 nm wavelength in the presence and absence of sweet ligands. A range of ligand concentrations were freshly prepared in 50 mM Tris-HCl pH 8.0. For titration experiments, successive 0.4 µL aliquots of sweeteners were added to 400 µL of hTAS1R2-VFT solution. Fluorescence measurements were corrected for bleaching, dilution and nonspecific buffer quenching. The dissociation constants (Kd) were calculated from a plot of the ratio between the fluorescence intensity variation and the maximum fluorescence intensity variation (ΔF/ΔFmax) versus the concentration of the total ligand. Assuming that the binding of hTAS1R2-VFT to sweet compounds is described by a one-site binding model, the Kd values of ligand–receptor interactions were determined with a standard nonlinear regression method using SigmaPlot 12.5 software (Systat Software, Inc., San Jose, CA, USA) as previously described. For each ligand, the experiment was repeated on at least twelve cells over at least three different batches of refolded hTAS1R2-VFT.

[1] = tested on: full-length hTAS1R2/hTAS1R3 receptor E382A; design: method as in PMID 22536376; conditions: cellular assays; cited from earlier work
[2] = target: T2, human TAS1R2/TAS1R3 receptor (Homo sapiens, UniProt Q7RTX0+Q8TE23); conditions: cellular assays, cited from earlier work
T2 sequence (Q8TE23 20-839): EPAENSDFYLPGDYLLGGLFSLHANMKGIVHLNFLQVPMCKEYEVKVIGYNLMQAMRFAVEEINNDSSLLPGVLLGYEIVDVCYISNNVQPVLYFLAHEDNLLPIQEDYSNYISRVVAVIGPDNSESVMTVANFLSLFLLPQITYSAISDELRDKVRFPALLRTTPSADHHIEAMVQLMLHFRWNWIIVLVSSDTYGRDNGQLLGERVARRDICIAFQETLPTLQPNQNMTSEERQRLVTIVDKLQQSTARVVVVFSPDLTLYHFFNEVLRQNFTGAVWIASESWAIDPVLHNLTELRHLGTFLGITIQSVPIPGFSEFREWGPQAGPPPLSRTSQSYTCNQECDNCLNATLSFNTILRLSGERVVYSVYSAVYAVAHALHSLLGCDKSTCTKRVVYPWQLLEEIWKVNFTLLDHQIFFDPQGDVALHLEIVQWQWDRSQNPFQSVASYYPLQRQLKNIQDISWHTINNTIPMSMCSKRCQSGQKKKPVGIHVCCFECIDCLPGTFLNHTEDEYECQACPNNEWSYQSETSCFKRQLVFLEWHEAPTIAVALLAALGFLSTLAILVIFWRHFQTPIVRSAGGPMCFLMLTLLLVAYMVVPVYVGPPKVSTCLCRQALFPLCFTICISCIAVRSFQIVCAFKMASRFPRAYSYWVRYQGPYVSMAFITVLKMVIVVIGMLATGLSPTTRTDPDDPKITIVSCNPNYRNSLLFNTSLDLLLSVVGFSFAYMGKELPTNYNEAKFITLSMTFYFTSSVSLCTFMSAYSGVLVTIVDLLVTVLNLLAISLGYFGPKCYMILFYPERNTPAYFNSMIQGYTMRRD
T2 sequence (Q7RTX0 21-852): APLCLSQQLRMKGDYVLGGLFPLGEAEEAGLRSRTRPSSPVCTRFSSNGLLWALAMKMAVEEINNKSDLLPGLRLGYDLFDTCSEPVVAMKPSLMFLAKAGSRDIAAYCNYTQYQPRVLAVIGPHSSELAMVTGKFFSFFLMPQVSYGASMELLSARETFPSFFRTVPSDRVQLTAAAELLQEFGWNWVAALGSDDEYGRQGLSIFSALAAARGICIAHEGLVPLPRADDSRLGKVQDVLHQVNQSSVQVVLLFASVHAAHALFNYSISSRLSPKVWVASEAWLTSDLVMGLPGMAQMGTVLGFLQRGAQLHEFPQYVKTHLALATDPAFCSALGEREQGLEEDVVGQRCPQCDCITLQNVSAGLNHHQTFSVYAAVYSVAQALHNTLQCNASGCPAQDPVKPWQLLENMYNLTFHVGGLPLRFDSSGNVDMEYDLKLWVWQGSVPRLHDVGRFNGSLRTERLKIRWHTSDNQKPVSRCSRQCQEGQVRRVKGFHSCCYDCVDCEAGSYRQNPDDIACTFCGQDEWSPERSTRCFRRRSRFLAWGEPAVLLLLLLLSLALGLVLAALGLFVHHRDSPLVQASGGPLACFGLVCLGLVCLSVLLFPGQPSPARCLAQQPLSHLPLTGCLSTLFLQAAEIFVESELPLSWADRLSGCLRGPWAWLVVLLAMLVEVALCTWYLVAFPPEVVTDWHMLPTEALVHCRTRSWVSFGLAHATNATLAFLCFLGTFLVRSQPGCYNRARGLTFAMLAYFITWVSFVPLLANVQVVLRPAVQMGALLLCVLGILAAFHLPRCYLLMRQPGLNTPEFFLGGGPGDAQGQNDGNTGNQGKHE

[3] = tested on: full-length hTAS1R2/hTAS1R3 receptor D278A; design: method as in PMID 22536376; conditions: cellular-based assay; cited from earlier work
hTAS1R2-VFT-D278A = target: T3, hTAS1R2-VFT-D278A (Homo sapiens, UniProt Q8TE23, D278A); assay: Intrinsic tryptophan fluorescence ligand binding, mutant D278A; conditions: Table 2, read-out: Apparent Kd hTAS1R2-VFT-D278A
T3 construct: followed by hTAS1R2-VFT (Ala22-Ser493) and another His6-tag at the C-terminus; His6 (thrombin-cleavable) (N); made in house
T3 sequence (Q8TE23 22-493 D278A): T1 sequence (Q8TE23 22-493) with D257A
Excerpt: To further confirm that the binding is specific, we performed mutagenesis studies on hTAS1R2-VFT. […] We performed ligand-binding titration assays in the same way as for hTAS1R2-VFT for the two point mutants.
Figure 5 Titration curves of hTAS1R2-VFT-D278A (blue triangles) and hTAS1R2-VFT (black circles) with sucralose (A) and aspartame (B). Circles and triangles show experimental data, while the solid lines are the computed binding curves. Wild-type receptor dose–responses are the same as for Figure 4. Data points correspond to the means ± SEMs of at least 12 independent replicates of at least three independently refolded protein samples.
All measurements were conducted at 20 °C using a Cary Eclipse spectrofluorimeter (Agilent Technologies, Santa Clara, CA, USA) equipped with a Peltier temperature control unit with a 5 nm bandwidth for emission and excitation. Ligand binding experiments with 0.5 µM hTAS1R2-VFTs were performed in buffer composed of 50 mM Tris-HCl pH 8, 150 mM NaCl, 0.5 mM DDM and 1 mM DTT. The intrinsic fluorescence of hTAS1R2-VFTs was measured at an excitation wavelength of 295 nm, and emission spectra were recorded from 320 to 380 nm. Fluorescence emission values were collected at 340 nm wavelength in the presence and absence of sweet ligands. […] Fluorescence measurements were corrected for bleaching, dilution and nonspecific buffer quenching. […]

[4] = target: T2, human TAS1R2/TAS1R3 receptor; assay: Cellular-based assay of the sweet taste receptor (EC50); type: cell-based
Excerpt: We determined its affinity constants for natural sugars using dose–response curves.

human TAS1R3-VFT = target: human TAS1R3-VFT; design: method as in PMID 22450161; conditions: cited from earlier work
[5] = in water equivalent to 5% sucrose, ref Shallenberger, 1993
[6] = Table 1, intrinsic fluorescence, 0.5 µM protein, 20 °C, pH 8, read-out: hTAS1R2-VFT (Kd)
[7] = in water equivalent to 2% sucrose, ref Schiffman and Gatlin, 1993
[8] = in water equivalent to 2% sucrose, ref Bassoli et al., 2002

| SMILES | Kd (hTAS1R2-VFT; [6]) [µM] | Sweetness Potency (human panels; [7]) | also measured |
| --- | --- | --- | --- |
| OC[C@H]1O[C@@H](O[C@H]2[C@H](O)[C@@H](O)C(O)O[C@@H]2CO)[C@H](O)[C@@H](O)[C@H]1O (mixture of isomers) [Lactose] | > 70000 |  | Sweetness Potency (human panels; [5]): 0.3 ^f |
| CC1=CC(=O)NS(=O)(=O)O1 [Acesulfame-K] | 0.9 ± 0.2 | 200 ^e | effect of E382A on the full-length receptor response [1]: abolishes |
| C[C@@H](NC(=O)[C@@H](N)CC(=O)O)C(=O)NC1C(C)(C)SC1(C)C [Alitame] | 0.15 ± 0.03 | 4500 ^e | EC50 ([2]; ref unpublished data obtained from collaborators): 13.8 ± 0.3 µM |
| COC(=O)[C@H](Cc1ccccc1)NC(=O)[C@@H](N)CC(=O)O [Aspartame] (H-Asp-Phe-OMe) | 17.2 ± 3.1 | 250 ^e | EC50 ([2]; ref Masuda et al., 2012): 75 ± 11 µM; effect of D278A on the full-length receptor response [3]: decrease the response; Kd (hTAS1R2-VFT-D278A): 223 ± 27.7 µM |
| O=S(=O)(O)NC1CCCCC1 [Cyclamate] |  | 26 ^e |  |
| O=C(CO)[C@@H](O)[C@H](O)[C@H](O)CO [Fructose] |  | 0.7 ^e | Kd (hTAS1R2-VFT): 900 ± 200 µM; EC50 [4]: 8000 ± 4000 µM |
| OC[C@H]1OC(O)[C@H](O)[C@@H](O)[C@@H]1O (some centres unmarked) [Glucose] | 1500 ± 300 |  | Sweetness Potency (human panels; [5]): 0.6 ^f |
| COC(=O)[C@H](Cc1ccccc1)NC(=O)[C@H](CC(=O)O)NCCC(C)(C)C [Neotame] | 0.09 ± 0.02 |  | Sweetness Potency (human panels; [8]): 11,000 ^g |
| C=C(C)[C@@H]1CC=C(/C=N/O)CC1 [Perillartine] |  |  | EC50 ([2]; ref Belloir et al., 2021): 2.54 ± 0.48 µM; Sweetness Potency (human panels; [8]): 1000 ^g |
| O=C1NS(=O)(=O)c2ccccc21 [Saccharin] |  | 500 ^e |  |
| OC[C@H]1O[C@H](O[C@]2(CCl)O[C@H](CCl)[C@@H](O)[C@@H]2O)[C@H](O)[C@@H](O)[C@H]1Cl [Sucralose] | 7 ± 1.3 | 600 ^e | effect of D278A on the full-length receptor response [3]: abolish the response; effect of E382A on the full-length receptor response [1]: reduces; binding affinity for human TAS1R3-VFT (human TAS1R3-VFT): millimolar range |
| OC[C@H]1O[C@@](CO)(O[C@H]2O[C@H](CO)[C@@H](O)[C@H](O)[C@H]2O)[C@@H](O)[C@@H]1O [Sucrose] | 4200 ± 900 | 1 ^e | EC50 ([4]; cellular assays, unpublished data from our laboratory, read-out: EC50): 11000 ± 3000 µM |
